# From patent US20030165854A1, “Marker genes responding to treatment with toxins” (priority 2000, published 2003)
# Key:
# [1] = tested on: rat liver cDNAs SEQ ID NOs: 1-61; format: in vivo, Han/Wistar rat; conditions: Strain HW; for Maximum Abundance, SEQ ID NO 14, Clone ID 700330824: Sex F
# [2] = tested on: rat liver cDNAs SEQ ID NOs: 1-61; format: in vivo, Han/Wistar rat; conditions: Strain HW, Sex F
# [3] = tested on: rat liver cDNAs SEQ ID NOs: 62-202; test: Abundance of cDNA clones in toxin-treated rat liver cDNA libraries (transcript imaging), Sprague-Dawley; format: in vivo; conditions: Strain SD
# Description: Columns 1 and 2 show the SEQ ID NO and Clone ID of the rat cDNA clone, respectively.
# Abundance of a clone was determined by counting the number of clones present in a master cluster.
# Abundance of a particular cDNA in the library profile was determined by summing the total number of copies of the clones present in the master cluster in that library.
smiles,measurement,setting,value
"ClC(Cl)(Cl)Cl [CCI4, carbon tetrachloride]","Maximum Abundance, SEQ ID NO 16, Clone ID 700024834",[1],3
same,"Maximum Abundance, SEQ ID NO 18, Clone ID 700060675",[1],4
same,"Maximum Abundance, SEQ ID NO 19, Clone ID 700062240",[1],5
same,"Maximum Abundance, SEQ ID NO 23, Clone ID 700067778",[1],3
same,"Maximum Abundance, SEQ ID NO 24, Clone ID 700123633",[1],3
same,"Maximum Abundance, SEQ ID NO 25, Clone ID 700127949",[1],3
same,"Maximum Abundance, SEQ ID NO 26, Clone ID 700132557",[1],7
same,"Maximum Abundance, SEQ ID NO 27, Clone ID 700135733",[1],4
same,"Maximum Abundance, SEQ ID NO 28, Clone ID 700135850",[1],3
same,"Maximum Abundance, SEQ ID NO 29, Clone ID 700137416",[1],4
same,"Maximum Abundance, SEQ ID NO 30, Clone ID 700140375",[1],3
same,"Maximum Abundance, SEQ ID NO 31, Clone ID 700140450",[1],8
same,"Maximum Abundance, SEQ ID NO 32, Clone ID 700144406",[1],4
same,"Maximum Abundance, SEQ ID NO 33, Clone ID 700175249",[1],7
same,"Maximum Abundance, SEQ ID NO 34, Clone ID 700177158",[1],3
same,"Maximum Abundance, SEQ ID NO 36, Clone ID 700181614",[1],3
same,"Maximum Abundance, SEQ ID NO 37, Clone ID 700182016",[1],3
same,"Maximum Abundance, SEQ ID NO 38, Clone ID 700185871",[1],3
same,"Maximum Abundance, SEQ ID NO 39, Clone ID 700198357",[1],3
same,"Maximum Abundance, SEQ ID NO 40, Clone ID 700230123",[1],4
same,"Maximum Abundance, SEQ ID NO 41, Clone ID 700248367",[1],3
same,"Maximum Abundance, SEQ ID NO 42, Clone ID 700250877",[1],3
same,"Maximum Abundance, SEQ ID NO 43, Clone ID 700253694",[1],3
same,"Maximum Abundance, SEQ ID NO 44, Clone ID 700303850",[1],3
same,"Maximum Abundance, SEQ ID NO 45, Clone ID 700305380",[1],4
same,"Maximum Abundance, SEQ ID NO 46, Clone ID 700313077",[1],3
same,"Maximum Abundance, SEQ ID NO 47, Clone ID 700361225",[1],3
same,"Maximum Abundance, SEQ ID NO 48, Clone ID 700363174",[1],3
same,"Maximum Abundance, SEQ ID NO 49, Clone ID 700478138",[1],5
same,"Maximum Abundance, SEQ ID NO 50, Clone ID 700480077",[1],3
same,"Maximum Abundance, SEQ ID NO 52, Clone ID 700491990",[1],3
same,"Maximum Abundance, SEQ ID NO 53, Clone ID 700818852",[1],5
same,"Maximum Abundance, SEQ ID NO 54, Clone ID 700937735",[1],8
same,"Maximum Abundance, SEQ ID NO 56, Clone ID 701257766",[1],3
same,"Maximum Abundance, SEQ ID NO 58, Clone ID 701574951",[1],3
same,"Maximum Abundance, SEQ ID NO 59, Clone ID 701578278",[1],3
same,"Maximum Abundance, SEQ ID NO 60, Clone ID 701597659",[1],3
same,"Maximum Abundance, SEQ ID NO 61, Clone ID 701637512",[1],4
same,"Maximum Abundance, SEQ ID NO 14, Clone ID 700330824",[1],3
"CC(=O)Nc1cccc2c1-c1ccccc1C2 [4-AAF, 4-acetylaminofluorene]","Maximum Abundance, SEQ ID NO 12, Clone ID 700062506",[2],3
same,"Maximum Abundance, SEQ ID NO 13, Clone ID 700135749",[2],4
same,"Maximum Abundance, SEQ ID NO 15, Clone ID 700024728",[1],3
same,"Maximum Abundance, SEQ ID NO 16, Clone ID 700024834",[1],3
same,"Maximum Abundance, SEQ ID NO 19, Clone ID 700062240",[1],5
same,"Maximum Abundance, SEQ ID NO 21, Clone ID 700064131",[1],3
same,"Maximum Abundance, SEQ ID NO 22, Clone ID 700065081",[1],3
same,"Maximum Abundance, SEQ ID NO 25, Clone ID 700127949",[1],3
same,"Maximum Abundance, SEQ ID NO 26, Clone ID 700132557",[1],7
same,"Maximum Abundance, SEQ ID NO 27, Clone ID 700135733",[1],4
same,"Maximum Abundance, SEQ ID NO 28, Clone ID 700135850",[1],3
same,"Maximum Abundance, SEQ ID NO 30, Clone ID 700140375",[1],3
same,"Maximum Abundance, SEQ ID NO 31, Clone ID 700140450",[1],8
same,"Maximum Abundance, SEQ ID NO 34, Clone ID 700177158",[1],3
same,"Maximum Abundance, SEQ ID NO 37, Clone ID 700182016",[1],3
same,"Maximum Abundance, SEQ ID NO 38, Clone ID 700185871",[1],3
same,"Maximum Abundance, SEQ ID NO 41, Clone ID 700248367",[1],3
same,"Maximum Abundance, SEQ ID NO 43, Clone ID 700253694",[1],3
same,"Maximum Abundance, SEQ ID NO 44, Clone ID 700303850",[1],3
same,"Maximum Abundance, SEQ ID NO 45, Clone ID 700305380",[1],4
same,"Maximum Abundance, SEQ ID NO 48, Clone ID 700363174",[1],3
same,"Maximum Abundance, SEQ ID NO 50, Clone ID 700480077",[1],3
same,"Maximum Abundance, SEQ ID NO 51, Clone ID 700483222",[1],3
same,"Maximum Abundance, SEQ ID NO 53, Clone ID 700818852",[1],5
same,"Maximum Abundance, SEQ ID NO 54, Clone ID 700937735",[1],8
same,"Maximum Abundance, SEQ ID NO 57, Clone ID 701341861",[1],3
same,"Maximum Abundance, SEQ ID NO 58, Clone ID 701574951",[1],3
same,"Maximum Abundance, SEQ ID NO 61, Clone ID 701637512",[1],4
same,"Maximum Abundance, SEQ ID NO 14, Clone ID 700330824",[1],3
"CC(C)OC(=O)C(C)(C)Oc1ccc(C(=O)c2ccc(Cl)cc2)cc1 [Feno, fenofibrate]","Maximum Abundance, SEQ ID NO 13, Clone ID 700135749",[2],4
same,"Maximum Abundance, SEQ ID NO 20, Clone ID 700063569",[1],3
same,"Maximum Abundance, SEQ ID NO 30, Clone ID 700140375",[1],3
same,"Maximum Abundance, SEQ ID NO 31, Clone ID 700140450",[1],8
same,"Maximum Abundance, SEQ ID NO 35, Clone ID 700179766",[1],3
same,"Maximum Abundance, SEQ ID NO 37, Clone ID 700182016",[1],3
same,"Maximum Abundance, SEQ ID NO 38, Clone ID 700185871",[1],3
same,"Maximum Abundance, SEQ ID NO 39, Clone ID 700198357",[1],3
same,"Maximum Abundance, SEQ ID NO 40, Clone ID 700230123",[1],4
same,"Maximum Abundance, SEQ ID NO 42, Clone ID 700250877",[1],3
same,"Maximum Abundance, SEQ ID NO 45, Clone ID 700305380",[1],4
same,"Maximum Abundance, SEQ ID NO 49, Clone ID 700478138",[1],5
same,"Maximum Abundance, SEQ ID NO 53, Clone ID 700818852",[1],5
same,"Maximum Abundance, SEQ ID NO 54, Clone ID 700937735",[1],8
same,"Maximum Abundance, SEQ ID NO 55, Clone ID 701197728",[1],3
same,"Maximum Abundance, SEQ ID NO 60, Clone ID 701597659",[1],3
c1ccc2c(c1)cc1ccc3cccc4ccc2c1c34 [benzo(a)pyrene],"Maximum Abundance, SEQ ID NO 76, Clone ID 700059750",[3],3
same,"Maximum Abundance, SEQ ID NO 77, Clone ID 700123903",[3],3
same,"Maximum Abundance, SEQ ID NO 78, Clone ID 700135554",[3],3
same,"Maximum Abundance, SEQ ID NO 79, Clone ID 700175783",[3],4
same,"Maximum Abundance, SEQ ID NO 80, Clone ID 700176825",[3],4
same,"Maximum Abundance, SEQ ID NO 81, Clone ID 700177142",[3],4
same,"Maximum Abundance, SEQ ID NO 82, Clone ID 700185570",[3],3
same,"Maximum Abundance, SEQ ID NO 83, Clone ID 700244879",[3],3
same,"Maximum Abundance, SEQ ID NO 84, Clone ID 700246085",[3],4
same,"Maximum Abundance, SEQ ID NO 85, Clone ID 700302152",[3],10
same,"Maximum Abundance, SEQ ID NO 86, Clone ID 700305538",[3],13
same,"Maximum Abundance, SEQ ID NO 87, Clone ID 700307329",[3],3
same,"Maximum Abundance, SEQ ID NO 88, Clone ID 700323326",[3],4
same,"Maximum Abundance, SEQ ID NO 89, Clone ID 700328990",[3],4
same,"Maximum Abundance, SEQ ID NO 90, Clone ID 700330391",[3],3
same,"Maximum Abundance, SEQ ID NO 91, Clone ID 700363445",[3],6
same,"Maximum Abundance, SEQ ID NO 92, Clone ID 700480903",[3],3
same,"Maximum Abundance, SEQ ID NO 93, Clone ID 700482908",[3],3
same,"Maximum Abundance, SEQ ID NO 94, Clone ID 700935261",[3],3
same,"Maximum Abundance, SEQ ID NO 95, Clone ID 700939101",[3],3
same,"Maximum Abundance, SEQ ID NO 96, Clone ID 700950626",[3],3
same,"Maximum Abundance, SEQ ID NO 97, Clone ID 701316308",[3],3
same,"Maximum Abundance, SEQ ID NO 98, Clone ID 701316810",[3],3
same,"Maximum Abundance, SEQ ID NO 99, Clone ID 701327688",[3],3
same,"Maximum Abundance, SEQ ID NO 100, Clone ID 701337820",[3],3
same,"Maximum Abundance, SEQ ID NO 101, Clone ID 701432276",[3],4
same,"Maximum Abundance, SEQ ID NO 102, Clone ID 701432317",[3],3
same,"Maximum Abundance, SEQ ID NO 103, Clone ID 701472012",[3],3
same,"Maximum Abundance, SEQ ID NO 104, Clone ID 701472036",[3],3
same,"Maximum Abundance, SEQ ID NO 105, Clone ID 701517108",[3],3
same,"Maximum Abundance, SEQ ID NO 106, Clone ID 701710808",[3],4
same,"Maximum Abundance, SEQ ID NO 107, Clone ID 701241446",[3],3
same,"Maximum Abundance, SEQ ID NO 108, Clone ID 701711993",[3],5
same,"Maximum Abundance, SEQ ID NO 110, Clone ID 700192259",[3],5
same,"Maximum Abundance, SEQ ID NO 111, Clone ID 700269330",[3],4
same,"Maximum Abundance, SEQ ID NO 112, Clone ID 701317696",[3],5
same,"Maximum Abundance, SEQ ID NO 186, Clone ID 700068662",[3],6
same,"Maximum Abundance, SEQ ID NO 187, Clone ID 700933309",[3],5
same,"Maximum Abundance, SEQ ID NO 201, Clone ID 700062503",[3],3
same,"Maximum Abundance, SEQ ID NO 202, Clone ID 700490891",[3],4
same,"Maximum Abundance, SEQ ID NO 74, Clone ID 700137978",[3]; Sex F,7
same,"Maximum Abundance, SEQ ID NO 75, Clone ID 701709967",[3]; Sex F,4
same,"Maximum Abundance, SEQ ID NO 188, Clone ID 700024288",[3]; Sex F,2
same,"Maximum Abundance, SEQ ID NO 190, Clone ID 700066933",[3]; Sex F,2
same,"Maximum Abundance, SEQ ID NO 191, Clone ID 700146747",[3]; Sex F,3
same,"Maximum Abundance, SEQ ID NO 193, Clone ID 700858043",[3]; Sex F,1
same,"Maximum Abundance, SEQ ID NO 109, Clone ID 700250903",[3]; Sex M,11
same,"Maximum Abundance, SEQ ID NO 196, Clone ID 700062747",[3]; Sex M,2
same,"Maximum Abundance, SEQ ID NO 197, Clone ID 700124248",[3]; Sex M,3
same,"Maximum Abundance, SEQ ID NO 200, Clone ID 700282789",[3]; Sex M,3
same,"Maximum Abundance, SEQ ID NO 6, Clone ID 700062791",[1],4
same,"Maximum Abundance, SEQ ID NO 7, Clone ID 700250279",[1],6
same,"Maximum Abundance, SEQ ID NO 8, Clone ID 700312413",[1],4
same,"Maximum Abundance, SEQ ID NO 9, Clone ID 700308908",[1],6
